These results are taken from ChEMBL document CHEMBL6134880, “Targeting Oncogenic Pathways: Advances in KRAS, CDK, EGFR, and PROTAC-Based Therapies” (ACS Med Chem Lett, 2025).

The target of one assay is SOS1-KRAS (Homo sapiens, UniProt P01116, G12D). The assay is described as follows: Inhibition of GST-tagged KRAS G12D mutant (2 to 169 residues) (unknown origin)/SOS1 catalytic domain (564 to 1069 residues) (unknown origin) protein-protein interaction preincubated with compound for 60 mins followed by SOS1 and GTP-DY-647P1 addition and measured after 30 mins by fluorescence based nucleotide exchange assay. It counts as protein-complex assay.

A short description of assay [1]: Inhibition of GST-tagged KRAS G12V mutant (2 to 169 residues) (unknown origin)/SOS1 catalytic domain (564 to 1069 residues) (unknown origin) protein-protein interaction preincubated with compound for 60 mins followed by SOS1 and GTP-DY-647P1 addition and measured after 90 mins by fluorescence based nucleotide exchange assay. The arrangement: species or system Homo sapiens.

For the compound `N#Cc1c(N)sc2c1C1(CC2)CN(c2nc(OC[C@@]34CCCN3C[C@H](F)C4)nc(N3CCCC(C#N)CC3)n2)C1` (some centres undefined), the IC50 (commonly the concentration needed to halve the response being measured) on SOS1-KRAS was 10 nM; in assay [1], below 10 nM.
For `C[C@@]1(O)C[C@@H](O)CN(c2nc(OC[C@@]34CCCN3C[C@H](F)C4)nc(N3CC4(CCc5sc(N)c(C#N)c54)C3)n2)C1` the same measures were below 10 nM and below 10 nM.
Take `CN(C)CC1(COc2nc(N3CC4(CCc5sc(N)c(C#N)c54)C3)nc(N3CCC[C@@](C)(O)C3)n2)CC1(F)F` (some centres undefined): the IC50 (on SOS1-KRAS; in assay [1]) was below 10 nM throughout.
Consider `N#Cc1c(N)sc2c1C1(CC2)CN(c2nc(OCC3(CN4CCOCC4)CC3)nc(N3C[C@H]4CC[C@@H](C3)N4)n2)C1`, for which the IC50 was below 10 nM at SOS1-KRAS and 10 nM in assay [1].
For `CC1(O)CCN(c2nc(OCC3(CN4CCOCC4)CC3)nc(N3CC4(CCc5sc(N)c(C#N)c54)C3)n2)CC1`, the half-inhibitory concentration (IC50) (on SOS1-KRAS; in assay [1]) was below 10 nM in each case.
In the case of `N#Cc1c(N)sc2c1C1(CC2)CN(c2nc(OC[C@@]34CCCN3C[C@H](F)C4)nc(N3CCCC4(C3)NC(=O)NC4=O)n2)C1` (some centres undefined), the IC50 (on SOS1-KRAS; in assay [1]) was below 10 nM throughout.
With `C=C1CN2CCCC2(COc2nc(N3CC4(CCc5sc(N)c(C#N)c54)C3)nc(N3CCC[C@@](C)(O)C3)n2)C1` (some centres undefined), the IC50 (at SOS1-KRAS; in assay [1]) was below 10 nM throughout.
For `CC1(O)CCCCN(c2nc(OC[C@@]34CCCN3C[C@H](F)C4)nc(N3CC4(CCc5sc(N)c(C#N)c54)C3)n2)C1` (some centres undefined), the half-maximal inhibitory concentration (IC50) is 10 nM on SOS1-KRAS and below 10 nM in assay [1].
On to `C[C@@]1(O)CCCN(c2nc(OC[C@@]34CCCN3C[C@H](F)C4)nc(N3CC4(C3)SCc3sc(N)c(C#N)c34)n2)C1`, for which the IC50 (at SOS1-KRAS; in assay [1]) was below 10 nM throughout.
Consider `N#Cc1c(N)sc2c1C1(CC2)CN(c2nc(OC[C@@]34CCCN3C[C@H](F)C4)nc(N3CCCCC(O)C3)n2)C1` (some centres undefined), for which the IC50 on SOS1-KRAS was 10 nM; in assay [1], below 10 nM.
In the case of `N#Cc1c(N)sc2c1C1(CC2)CN(c2nc(OCC3(CN4CCOCC4)CC3)nc(N3CCCC4(C3)NC(=O)NC4=O)n2)C1` (centres undefined), the IC50 (on SOS1-KRAS; in assay [1]) was below 10 nM in each case.
As for `C[C@@]1(O)CCCN(c2nc(OC[C@@]34CCCN3C[C@H](F)C4)nc(N3CC4(CCc5sc(N)c(C#N)c54)C3)n2)C1`, the IC50 (at SOS1-KRAS; in assay [1]) was below 10 nM each time.
